Legend:
Experiment in all cases: relative viability (nuclei count vs DMSO), 5 days (fraction); higher = more cells survive
EKVX = tested on: EKVX
In short: (§1)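 For relative viability, nuclei counts in treated wells were divided by those in vehicle wells. Lung cancer cell lines had been pin-tool dosed in 1536-well plates the day after seeding and cultured for 5 days, then fixed and stained in one step (final 0.05% Triton X-100, 1% formaldehyde, 1 ug/ml Hoechst) and imaged at 4×. Doses were one drug alone or a fixed anchor-drug dose plus five library-drug doses (not always all listed) in √10 steps, and values are duplicate-plate medians.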

COR-L 105 = tested on: COR-L 105
In short: as §1

HCC-366 = tested on: HCC-366
In short: as §1

NCI-H1437 = tested on: NCI-H1437
In short: as §1

BEN = tested on: BEN
In short: as §1

LOU-NH91 = tested on: LOU-NH91
In short: as §1

PC-14 = tested on: PC-14
In short: as §1

HARA = tested on: HARA
In short: as §1

NCI-H441 = tested on: NCI-H441
In short: as §1

NCI-H460 = tested on: NCI-H460
In short: as §1

ABC-1 = tested on: ABC-1
In short: as §1

NCI-H1650 = tested on: NCI-H1650
In short: as §1

CAL-12T = tested on: CAL-12T
In short: as §1

NCI-H727 = tested on: NCI-H727
In short: as §1

NCI-H1666 = tested on: NCI-H1666
In short: as §1

NCI-H661 = tested on: NCI-H661
In short: as §1

NCI-H2009 = tested on: NCI-H2009
In short: as §1

201T = tested on: 201T
In short: as §1

NCI-H3122 = tested on: NCI-H3122
In short: as §1

LK-2 = tested on: LK-2
In short: as §1

NCI-H2170 = tested on: NCI-H2170
In short: as §1

Cc1sc2c(c1C)C(c1ccc(Cl)cc1)=N[C@@H](CC(=O)OC(C)(C)C)c1nnc(C)n1-2 [JQ1] + CS(=O)(=O)N1CCN(Cc2cc3nc(-c4cccc5[nH]ncc45)nc(N4CCOCC4)c3s2)CC1 [Pictilisib] (partner 1 µM)
relative viability (EKVX; first compound 0.04 µM): 0.442 | relative viability (EKVX; first compound 0.1265 µM): 0.464 | relative viability (EKVX; first compound 0.4 µM): 0.459 | relative viability (EKVX; first compound 1.265 µM): 0.359 | relative viability (EKVX; first compound 4 µM): 0.335 | relative viability (COR-L 105; first compound 0.04 µM): 0.374 | relative viability (COR-L 105; first compound 0.1265 µM): 0.264 | relative viability (COR-L 105; first compound 0.4 µM): 0.312 | relative viability (COR-L 105; first compound 1.265 µM): 0.304 | relative viability (COR-L 105; first compound 4 µM): 0.327 | relative viability (HCC-366; first compound 0.04 µM): 0.136 | relative viability (HCC-366; first compound 0.1265 µM): 0.156 | relative viability (HCC-366; first compound 0.4 µM): 0.131 | relative viability (HCC-366; first compound 1.265 µM): 0.153 | relative viability (HCC-366; first compound 4 µM): 0.196 | relative viability (NCI-H1437; first compound 0.04 µM): 0.405 | relative viability (NCI-H1437; first compound 0.1265 µM): 0.237 | relative viability (NCI-H1437; first compound 0.4 µM): 0.233 | relative viability (NCI-H1437; first compound 1.265 µM): 0.157 | relative viability (NCI-H1437; first compound 4 µM): 0.168 | relative viability (BEN; first compound 0.04 µM): 0.481 | relative viability (BEN; first compound 0.1265 µM): 0.486 | relative viability (BEN; first compound 0.4 µM): 0.461 | relative viability (BEN; first compound 1.265 µM): 0.272 | relative viability (BEN; first compound 4 µM): 0.205 | relative viability (LOU-NH91; first compound 0.04 µM): 0.529 | relative viability (LOU-NH91; first compound 0.1265 µM): 0.545 | relative viability (LOU-NH91; first compound 0.4 µM): 0.463 | relative viability (LOU-NH91; first compound 1.265 µM): 0.419 | relative viability (LOU-NH91; first compound 4 µM): 0.354 | relative viability (PC-14; first compound 0.04 µM): 0.631 | relative viability (PC-14; first compound 0.1265 µM): 0.498 | relative viability (PC-14; first compound 0.4 µM): 0.445 | relative viability (PC-14; first compound 1.265 µM): 0.243 | relative viability (PC-14; first compound 4 µM): 0.122 | relative viability (HARA; first compound 0.04 µM): 0.505 | relative viability (HARA; first compound 0.1265 µM): 0.224 | relative viability (HARA; first compound 0.4 µM): 0.379 | relative viability (HARA; first compound 1.265 µM): 0.177 | relative viability (HARA; first compound 4 µM): 0.0809 | relative viability (NCI-H441; first compound 0.04 µM): 0.475 | relative viability (NCI-H441; first compound 0.1265 µM): 0.561 | relative viability (NCI-H441; first compound 0.4 µM): 0.38 | relative viability (NCI-H441; first compound 1.265 µM): 0.234 | relative viability (NCI-H441; first compound 4 µM): 0.195 | relative viability (NCI-H460; first compound 0.04 µM): 0.398 | relative viability (NCI-H460; first compound 0.4 µM): 0.276 | relative viability (NCI-H460; first compound 1.265 µM): 0.204 | relative viability (NCI-H460; first compound 4 µM): 0.135 | relative viability (ABC-1; first compound 0.04 µM): 0.699 | relative viability (ABC-1; first compound 0.1265 µM): 0.545 | relative viability (ABC-1; first compound 0.4 µM): 0.512 | relative viability (ABC-1; first compound 1.265 µM): 0.387 | relative viability (ABC-1; first compound 4 µM): 0.365 | relative viability (NCI-H1650; first compound 0.04 µM): 0.625 | relative viability (NCI-H1650; first compound 0.1265 µM): 0.445 | relative viability (NCI-H1650; first compound 0.4 µM): 0.286 | relative viability (NCI-H1650; first compound 1.265 µM): 0.122 | relative viability (NCI-H1650; first compound 4 µM): 0.169 | relative viability (CAL-12T; first compound 0.04 µM): 0.414 | relative viability (CAL-12T; first compound 0.4 µM): 0.457 | relative viability (CAL-12T; first compound 1.265 µM): 0.293 | relative viability (CAL-12T; first compound 4 µM): 0.36 | relative viability (NCI-H727; first compound 0.04 µM): 0.371 | relative viability (NCI-H727; first compound 0.1265 µM): 0.554 | relative viability (NCI-H727; first compound 0.4 µM): 0.205 | relative viability (NCI-H727; first compound 1.265 µM): 0.233 | relative viability (NCI-H727; first compound 4 µM): 0.309 | relative viability (NCI-H1666; first compound 0.04 µM): 0.314 | relative viability (NCI-H1666; first compound 0.1265 µM): 0.526 | relative viability (NCI-H1666; first compound 0.4 µM): 0.414 | relative viability (NCI-H1666; first compound 1.265 µM): 0.274 | relative viability (NCI-H1666; first compound 4 µM): 0.288 | relative viability (NCI-H661; first compound 0.04 µM): 0.426 | relative viability (NCI-H661; first compound 0.1265 µM): 0.326 | relative viability (NCI-H661; first compound 0.4 µM): 0.337 | relative viability (NCI-H661; first compound 1.265 µM): 0.365 | relative viability (NCI-H661; first compound 4 µM): 0.294 | relative viability (NCI-H2009; first compound 0.04 µM): 0.767 | relative viability (NCI-H2009; first compound 0.1265 µM): 0.534 | relative viability (NCI-H2009; first compound 0.4 µM): 0.33 | relative viability (NCI-H2009; first compound 1.265 µM): 0.205 | relative viability (NCI-H2009; first compound 4 µM): 0.245 | relative viability (201T; first compound 0.04 µM): 0.656 | relative viability (201T; first compound 0.1265 µM): 0.644 | relative viability (201T; first compound 0.4 µM): 0.519 | relative viability (201T; first compound 1.265 µM): 0.474 | relative viability (201T; first compound 4 µM): 0.399 | relative viability (NCI-H3122; first compound 0.04 µM): 0.576 | relative viability (NCI-H3122; first compound 0.1265 µM): 0.624 | relative viability (NCI-H3122; first compound 0.4 µM): 0.675 | relative viability (NCI-H3122; first compound 1.265 µM): 0.425 | relative viability (NCI-H3122; first compound 4 µM): 0.445 | relative viability (LK-2; first compound 0.04 µM): 0.514 | relative viability (LK-2; first compound 0.1265 µM): 0.511 | relative viability (LK-2; first compound 0.4 µM): 0.35 | relative viability (LK-2; first compound 1.265 µM): 0.223 | relative viability (LK-2; first compound 4 µM): 0.226 | relative viability (NCI-H2170; first compound 0.04 µM): 0.293 | relative viability (NCI-H2170; first compound 0.1265 µM): 0.292 | relative viability (NCI-H2170; first compound 0.4 µM): 0.261 | relative viability (NCI-H2170; first compound 1.265 µM): 0.188 | relative viability (NCI-H2170; first compound 4 µM): 0.152

Source: the supplement of paper PMC10307832
